Literature values as cited in patent US5639739A, “Imidazole containing aminoboronic acids” (The DuPont Merck Pharmaceutical Company, priority 1995, dated 1997).

Key:
[1] = target: human thrombin (Homo sapiens, UniProt P00734)
[2] = target: chymotrypsin (Bos taurus, UniProt P00766); conditions: Matteson et al. 1981
[3] = target: thrombin; conditions: literature values

Which “kind of inhibition of human thrombin” value ([1]; Kettner and Shaw 1979) does the source give for `N=C(N)NCCC[C@H](NC(=O)[C@@H]1CCCN1C(=O)[C@H](N)Cc1ccccc1)C(=O)CCl` [H-(D) Phe-Pro-ArgCH2 Cl] here?
Its value is “selective but irreversible inhibitor”.

Which Ki [2] does the source give for `CC(=O)N[C@@H](Cc1ccccc1)B(O)O` [Acborophe-OH, R-1-acetamido-2-phenylethane boronic acid] here?
The Ki was 4 µM.

Which Ki [3] does the source give for `N#CC(CCCNC(=N)N)NC(=O)[C@@H]1CCCN1C(=O)[C@H](N)Cc1ccccc1` (stereo partly drawn) [D-phenylalanyl-prolyl-NHCH((CH2)3 NHC(=NH)NH2)--CN] here?
Its Ki is 700 nM.

For `N=C(N)NCCC[C@@H](C=O)NC(=O)[C@@H]1CCCN1C(=O)[C@H](N)Cc1ccccc1` [D-phenylalanyl-prolyl-arginal], which Ki ([1]; human thrombin, literature values) is on record?
The Ki was 75 nM.
